# How the values were obtained:
# PC-3 cells = test: Detection of autophagy (GFP-LC3 autophagosomes, Beclin-1/LC3 Western blot); assay type: cell-based, human; settings: PC-3, 10 μM
# Protocol: Photographs were obtained with a fluorescence microscope (Axioscop, Carl Zeiss, Thomwood, N.Y.) equipped with a mercury 100 W lamp, 490 nm band pass blue excitation filters, a 500 nm dichroic mirror and a 515 nm long pass barrier filter. The autophagy induced by 3-HPT in PC-3 cells was also further confirmed by the Western Blotting analysis of Beclin-1, LC3-I, LC3-II, Actin protein expression in PC-3 cells after 10 μM 3-HPT treatment at different time intervals (FIG. 9). The following conclusions were drawn based on aforesaid experimental studies. • 1. […] 3-Hydroxypterostilbene induced the intrinsic apoptotic pathway and extrinsic apoptotic pathway in PC-3 cells. • 3. […] 3′-Hydroxypterostilbene has significant therapeutic potential for the treatment of human prostate cancer.
# [1] = system: PARP, DFF-45, pro-caspase 8 and pro-caspase 9 in COLO 205 cells; test: Western blotting of PARP, DFF-45, pro-caspase 8 and pro-caspase 9 cleavage; assay type: cell-based, human; settings: COLO 205 cell lysates
# Protocol: Western blotting analysis was performed as follows. The total proteins of COLO 205 cells were extracted via addition of gold lysis buffer (50 mM TrisHCl, pH 7.4; 1 mM NaF; 150 mM NaCl; 1 mM EGTA; 1 mM phenylmethanesulfonyl fluoride; 1% NP40; and 10 μg/mL leupeptin) to the cell pellets on ice for 30 min, followed by centrifugation at 10,000×g for 30 min at 4° C. The total proteins were measured by BioRad Protein Assay (BioRad Laboratories, Munich, Germany). The samples (50 μg of protein) were mixed with 5× sample buffer containing 0.3 M TrisHCl (pH 6.8), 25% 2mercaptoethanol, 12% sodium dodecyl sulfate (SDS), 25 mM EDTA, 20% glycerol, and 0.1% bromophenol blue. The mixtures were boiled at 100° C. for 5 min and were subjected to 10% SDS polyacrylamide minigels at a constant current of 20 mA. Electrophoresis was then carried out on SDSpolyacrylaniide gels. Proteins on the gel were electrotransferred onto an immobile membrane (PVDF; Millipore Corp., Bedford, Mass.) with transfer buffer composed of 25 mM TrisHCl (pH8.9), 192 mM glycine, and 20% methanol. The membranes were blocked with blocking solution containing 20 mM TrisHCl, and then immunoblotted with different primary antibodies and β actin. The blots were rinsed three times with PBST buffer (0.2% Tween 20 in 1× PBS buffer) for 10 min each. Then blots were incubated with 1:5000 dilution of the horseradish peroxidase (HRP) conjugated secondary antibody (Zymed Laboratories, San Francisco, Calif.) and then washed again three times with PBST buffer. The transferred proteins were visualized with an enhanced chemi-luminescence detection kit (ECL Amersham Pharmacia Biotech, Buckinghamshire, UK). The densities of the bands were quantified with a computer densitometer (AlphaImager™ 2200 System Alpha densitometer. Innotech Corporation, San Leandro, Calif.). […] The pro-caspase 8 cleavage by 3-HPT was moderate (FIG. 12).
# COLO 205 cells = test: Chloroquine (CQ) pretreatment, MTT viability and subG1 analysis; assay type: cell-based; settings: COLO 205, 25 μM CQ 1 h then 50 μM for 24 h
# Protocol: Cells were pretreated with 25 μM CQ for 1 h before treatment with 50 μM of pterostilbene or 3-hydroxypterostilbene for 24 h. Cell viability was determined by MTT assay. SubG1 cell population (%) was analyzed and quantified after Propidium iodide (PI) staining followed by flow cytometry.
# HCT-116 cells = test: MTT cell viability assay, HCT116; assay type: cell-based; settings: Homo sapiens; HCT-116, MTT, 24 h
# Protocol: The human colon cancer cell lines COLO 205, HCT116 and HT29 were purchased from the American Type Culture Collection (Rockville, Md.). Cell lines were grown in RPMI1640 supplemented with 10% heat inactivated fetal bovine serum (GIBCO BRL, Grand Island, N.Y.), 100 units/mL of penicillin, 100 μg/mL of streptomycin), 2 mM L-glutamine (GIBCO BRL, Grand Island, N.Y.), and were kept at 37° C. in a humidified 5% CO2 incubator. Pterostilbene and 3-HPT were dissolved in dimethyl sulfoxide (DMSO, as final concentration of 0.05%). Cells were treated with 0.05% DMSO as vehicle control.
# (§1) Cell viability was assayed by 3(4,5-dimethylthiazol-2-yl)-2,5-diphenyltetrazolium bromide (MTT). Briefly. COLO 205, HCT116 and HT29 cells were plated at a density of 2×10^2 cells/mL into 96 well plates. After overnight growth, cells were treated with a series of concentrations of pterostilbene or 3-hydroxypterostilbene for 24 h. The final concentrations of DMSO in the culture medium were <0.05%. At the end of treatment, 0.2% MTT was added and cells were incubated for a further 4 h. Cell viability was determined by scanning with an ELISA reader with a 570 nm filter.
# [2] = system: PC-3 (Human prostate cancer cell line); test: MTT cell viability assay, PC-3; assay type: cell-based
# Protocol: as §1
# The MTT reaction explained in Para 0040 was also used to assess the cell viability of human prostate cancer cells (PC-3) in the presence of pterostilbene and 3-hydroxypterostilbene. The results (FIG. 1) are represented in Table II.
# [3] = system: caspase 3 activity in COLO 205 cells; test: Fluorogenic caspase induction assay; assay type: cell-based, human; settings: COLO 205, after 24 hours of treatment
# Protocol: The caspase 3, 8 and 9 induction activity in protein extractions of COLO 205 cells was determined by a fluorogenic assay (Promega's CaspACE Assay System, Madison, Wis.). Briefly, 50 μg of total protein, as determined by the BioRad protein assay kit (BioRad Laboratories), was incubated with 50 μM substrate Ac-Asp-Glu-Val-Asp-methylcoumaryl-7-amine (caspase3 specific substrate), Ac-Ile-Glu-Thr-Asp-AMC ([…]) (caspase 8 specific substrate), or Ac-Leu-Glu-His-Asp-AMC (Ac-LEHD-AMC) (caspase 9 specific substrate) at 30° C. for 1 h. The release of methylcoumaryl-7-amine was measured by excitation at 360 nm and emission at 460 nm using a fluorescence spectrophotometer (ECLIPSE, Varian, Palo Alto, Calif.).
smiles,measurement,setting,value
"COc1cc(/C=C/c2ccc(O)c(O)c2)cc(OC)c1 [3-hydroxypterostilbene, 3,4-dihydroxy-3′,5′-dimethoxy-trans-stilbene]","autophagy (Beclin-1, LC3 expression, autophagosome formation)",PC-3 cells,"induced autophagic cell death by increasing the Beclin-1, LC3 protein expression and autophagosome formation"
same,DFF45 protein degradation,[1],induced DFF45 protein degradation
same,pro-caspase 8 cleavage,[1],moderate
same,pro-caspase 9 cleavage,[1],much better than that exemplified by pterostilbene
same,degradation of PARP,[1]; compared with pterostilbene,markedly caused the degradation of 116 kDa PARP into 85 kDa fragments
same,cytotoxicity after CQ pretreatment,COLO 205 cells,significant increase cytotoxicity
same,IC50,HCT-116 cells,40.2 ± 0.6 µM
same,IC50,"[2]; Homo sapiens, PC-3, MTT",5 µM
same,growth inhibitory effect,[2]; PC-3 human prostate cancer cells,strong growth inhibitory effect
same,increase in caspase 3 activity,[3],approximately 2.4 fold

# — US20160058712A1, “3-HYDROXYPTEROSTILBENE AND THERAPEUTIC APPLICATIONS THEREOF” (priority 2014, published 2016)
